Measurements from patent US9114158B2, “Compounds and methods of use in ablative radiotherapy” (The Johns Hopkins University, priority 2011, dated 2015).

What was measured:
[1] = Biodistribution of RK-33 in mice by LC/MS/MS; assay type: in vivo; conditions: I.P. single dose of 20 mg/kg; 30 minutes, 60 minutes and 24 hours
Description: FIG. 9 is a set of curves illustrating the biodistribution of RK-33 in mice at different time intervals using an LC/MS/MS method. A total of five mice per time point were used for this study.
Analysis of the toxicity of RK-33 in SCID mice. […] Subsequently, we carried out pharmacokinetics in multiple tissue compartments. For this a LC/MS/MS method was developed for determination of RK-33 in mouse plasma (FIG. 9-inset). Sample preparation involved acetonitrile precipitation and separation of RK-33 and the internal standard, temazepam, was achieved on a Waters Xterra column. […] The animals were injected I.P. (single dose of 20 mg/kg with five animals per arm) and the tissue harvested at different time intervals (30 minutes, 60 minutes and 24 hours) and analyzed.

A549 cells = assay: Combination of RK-33 and radiation in A549 cells, Chou-Talalay analysis; assay type: cell-based; conditions: 4 and 6 μM RK-33 with 2 and 7 gray of radiation
Description: FIG. 8 is a set of bar graphs depicting the effect of radiation and RK-33 on A549 cells. […] Experiments were performed in triplicate.
Clonogenic assays. About 1×10^5 A549 cells were treated with RK-33 (1-6 μM) and to increasing dose of IR (1-20 Gy). After 24 hours, 500 cells from each combination treatment will be plated into a 6-well plate. Following incubation for 1-3 weeks, colonies were fixed in glutaraldehyde (6.0% v/v), stained with crystal violet (0.5% w/v) and counted using a stereomicroscope. Clusters of >50 cells (i.e., six cell doubling times) were scored as colonies. The amount of radiosensitization by RK-33 was determined using the Chou-Talalay equation to determine the combination index (CI). A CI 0.9-1.1 was indicative of additivity while a CI <0.9 indicated synergism. The survival curves, S, were fit to the linear-quadratic model S=exp(−αD-βD2) to determine classical parameters of radiation sensitivity.
Combinatorial effect of RK-33 and radiation in lung cancer cell line, A549. Given the current treatment protocol for lung cancer patients, which includes chemotherapy and radiation, the cell killing abilities of RK-33 was evaluated in combination with radiation in a chemotherapy/radiation resistant lung cancer cell line, A549 (FIG. 7). […] For this experiment, RK-33 below the IC50 value was used to determine if there was any additive or synergistic effect. […]

[2] = Toxicity of RK-33 in SCID mice, pathological examination after necropsy; assay type: in vivo
lung tumors in CRT mice = assay: RK-33 and radiation in CRT autochthonous lung tumor mice, microCT tumor volume; assay type: in vivo
Description: FIG. 11 is a bar graph showing the chemosensitization of RK-33 with radiation to reduce lung tumors in CRT mice. Following RK-33 and radiation treatment, the animals were imaged using microCT (data not shown). The bar graph depicts the reduction of lung tumor volume in n=8 animals per group. The tumor volumes were quantified from the CBCT data set using the image and volume contouring utility of the Pinnacle3 Radiation Therapy Planning software v.8.1y (Philips Inc., Madison, Wis.) used in the clinic for human patients. Each CBCT data set contains full 3D volumetric data for the tumor burden estimation.
Generating the CRT mice and drug treatment. As shown in the results, the functional utility of CRT mice was validated. CRT mice are generated from combinations of bi-transgenic mice; e.g., CT X CR. CRT mice were activated shortly after weaning, four-five weeks old, by doxycycline administered in their drinking water (up to 2 mg/ml) in a total volume of 350 ml to simultaneously activate both Twist1 and KrasG12D transgenes. Fresh doxycycline containing water was administered weekly. Ten weeks post transgene induction, the mice were imaged by microCT to determine tumor load. Induction of the transgenes and imaging the tumor load by microCT were continuous (weekly) till the end of the experiment. Following induction and establishment of lung tumors, RK-33 (1 mM equivalent to 40 mg/Kg) was injected intraperitoneally in combination with radiation at schedules described in the table below. The number of animals used in each group was 25.
MicroCT procedures. Presently a small animal radiation research platform for radiation treatment of animals was developed. […]
Thoracic image-guided irradiation. […] Fifteen Gy radiation calculated at the isocenter was delivered using a single posterior field. […]
Endpoints for in vivo experiments. […] Animals following treatment are monitored daily by animal care staff and 3×/week by investigators for signs of mortality and morbidity. […]

H23 = assay: MTS assay, lung cancer cell line H23; assay type: cell-based
Description: (§1) FIG. 5 is a plot showing the effect of RK-33 on two lung cancer cell lines. Lung cancer cell lines were incubated with different concentrations of RK-33. At day 3, MTS assays were performed to determine the percentage of metabolically active cells. The experiments were repeated in triplicate. The IC50 values for H23 and A549 are 3.5 and 5 μM respectively.
To study the effects of RK-33 on cell growth and proliferation, lung cancer cell lines (H23 and A549) were used for the initial studies. […] To the best of our knowledge, this is the first data set of evaluating the efficacy of a small molecule inhibitor of DDX3 to kill lung cancer cells.

A549 = assay: MTS assay, lung cancer cell line A549; assay type: cell-based
Description: as §1, with “respectively. […] Experiments were performed in triplicate. To study the effects of RK-33 on cell growth and proliferation, lung cancer cell lines (H23 and A549) were used for the initial studies. […] To the best of our knowledge, this is the first data set of evaluating the efficacy of a small molecule inhibitor of DDX3 to kill lung cancer cells.” for “respectively.”

[3] = system: Cells engineered to express a hypoxia induced red fluorescent protein (tdTomato); assay: Cell death under hypoxic conditions (CoCl2 hypoxia mimetic); assay type: cell-based; conditions: CoCl2 24 hours, then RK-33 72 hours
Description: Cells engineered to express a hypoxia induced red fluorescent protein (tdTomato) were incubated with CoCl2 (hypoxia mimetic compound) for 24 hours, following which RK-33 was added and incubated for 72 hours. Photomicrographs were taken at 20×. Experiments were repeated twice. Effect of hypoxia on the functional activity of RK-33 to induce cell death. During solid tumor biogenesis, regions of hypoxia develop within the tumor due to inadequate and poorly formed vasculature. […] In addition, some have posited that tumor hypoxia is a major limiting factor of the curability by SABR at lower radiation dose. […] To evaluate efficacy of RK-33 to induce cell death under hypoxic conditions, cells were incubated with CoCl2 (hypoxia mimetic compound) for 24 hours, following which RK-33 was added and incubated for 72 hours.

DDX3 = biological target: T1, DDX3 (Homo sapiens, UniProt O00571); assay: DDX3 helicase unwinding assay with duplex oligos; assay type: biochemical; conditions: 100 μM RK-33, over a period of 80 minutes
T1 construct: made in house; host or cells: pET system (Novagen); E. coli is my own knowledge of the pET system
T1 sequence (O00571 whole entry): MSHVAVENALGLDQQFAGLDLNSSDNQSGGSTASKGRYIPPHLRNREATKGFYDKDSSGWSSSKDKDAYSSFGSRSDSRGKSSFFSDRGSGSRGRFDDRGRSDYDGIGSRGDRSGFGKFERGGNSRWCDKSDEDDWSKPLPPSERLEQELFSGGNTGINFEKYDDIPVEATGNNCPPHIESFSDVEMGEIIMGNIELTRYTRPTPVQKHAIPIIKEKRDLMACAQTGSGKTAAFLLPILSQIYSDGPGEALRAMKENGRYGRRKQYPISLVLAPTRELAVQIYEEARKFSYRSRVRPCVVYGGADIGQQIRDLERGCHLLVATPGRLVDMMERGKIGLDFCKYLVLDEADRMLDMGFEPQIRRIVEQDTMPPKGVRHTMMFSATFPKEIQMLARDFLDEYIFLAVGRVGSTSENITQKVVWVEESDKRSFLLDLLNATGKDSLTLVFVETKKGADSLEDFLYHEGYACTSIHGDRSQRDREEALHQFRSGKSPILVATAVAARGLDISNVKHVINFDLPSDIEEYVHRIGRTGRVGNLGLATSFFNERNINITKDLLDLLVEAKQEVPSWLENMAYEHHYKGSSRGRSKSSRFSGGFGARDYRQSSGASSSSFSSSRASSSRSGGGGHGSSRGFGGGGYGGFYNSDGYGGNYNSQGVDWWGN
Description: FIG. 4 is a chart showing RK-33 inhibits helicase activity of DDX3.
Generating small molecular inhibitors of DDX3 function. As loss of DDX3 function abrogated colony forming abilities along with increased expression in lung carcinoma samples, a search was initiated to identify molecules that could target a functional substrate binding site of DDX3 protein. Initial work generated a fused diimidazodiazepine ring molecule (RK-33) to target RNA helicase. To confirm the functional activity of RK-33 on DDX3, an in vitro assay was carried out to determine the effects of RK-33 on helicase activity. DDX3 protein was synthesized using the pET system from Novagen. Following DDX3 purification, the unwinding assays were performed using duplex oligos, purified DDX3 and RK-33. Quantification was done by evaluating the pixel density of the native duplex oligos and the unwound oligos.

Row | SMILES | brain exposures [1] | target tissue concentrations [1] | combination effect with radiation on cell death (Chou-Talalay) (A549 cells) | pathological examination of all tissues following necropsy [2] | tumor volume reduction, RK-33 combined with conventional fractionated radiation (lung tumors in CRT mice; 3 Gy x10) | tumor response, single agent (lung tumors in CRT mice; RK-33 1 mM i.p. 3 times a week alone, microCT) | tumor response, RK-33 combined with SABR (lung tumors in CRT mice; RK-33 1 mM i.p. 3 times a week, 1 week before and 1 week after 15 Gy whole thorax SABR, microCT and H&E) | effect on cell growth and proliferation (H23; H23, 8 μM RK-33) | IC50 (H23; Homo sapiens, NCI-H23, 72 h, H23, MTS at day 3) | sensitivity of A549 cells in MTS assay (A549) | effect on cell growth and proliferation (A549; A549, 8 μM RK-33) | IC50 (A549; Homo sapiens, 72 h, A549, MTS at day 3) | activity to induce cell death under hypoxic conditions [3] | reduction of unwinding of the duplex oligos (DDX3)
1 | COc1ccc(Cn2c3ncnc4c(ncn4Cc4ccc(OC)cc4)c-3nc2=O)cc1 [RK-33] | well managed | well above effective killing concentrations | significant synergistic effect | no tissue damage | no synergy | stasis or perhaps slight regression | dramatic tumor regression | efficiently ablate | 3.5 µM | sensitive | efficiently ablate | 5 µM | retain its activity both under normoxic and hypoxic conditions | at least 60%
2 | N.N.O=C([O-])C1(C(=O)[O-])CCC1.[Pt+2] [carboplatin, reference compound] | – | – | – | – | – | – | – | – | – | resistant | – | – | – | –
